Data on one compound can be found in PMC3792051, “Polyenylpyrrole Derivatives Inhibit NLRP3 Inflammasome Activation and Inflammatory Mediator Expression by Reducing Reactive Oxygen Species Production and Mitogen-Activated Protein Kinase Activation” (PLoS ONE, 2013).

Holding throughout (type): cell-based, murine
Assay [1] relates to LPS-activated RAW 264.7 macrophages. The experiment in a line: MAPK (ERK1/2, JNK1/2, p38) phosphorylation by Western blot. The settings on record: RAW 264.7, 20 µM 30 min, LPS 1 µg/ml 0-60 min. Here is the method:
Cells were washed twice with ice-cold phosphate-buffered saline (PBS) and lysed on ice for 5 min with lysis buffer (20 mM Tris-HCl, pH 7.5, 150 mM NaCl, 1 mM Na 2EDTA, 1 mM EGTA, 1% Triton X-100, 2.5 mM sodium pyrophosphate, 1 mM beta-glycerophosphate, 1 mM Na 3VO4, 1 µg/ml of leupeptin, 1 mM PMSF, protease inhibitor cocktail). The lysate was then centrifuged at 12,000 x g at 4 °C for 10 min and the pellet discarded. […]
Figure 5 Effect of compound 1h on ROS production and MAPK phosphorylation in LPS-activated macrophages. In (A), RAW 264.7 macrophages (5 × 10^5/ml; 1 ml) were incubated for 30 min with compound 1h (20 µM), N-acetyl cysteine (NAC; 10 mM), or DMSO (vehicle), then 2’, 7’-dichlorofluorescein diacetate (2 µM) was added for 30 min, followed by LPS (1 µg/ml) stimulation for the indicated time, then ROS levels were measured by detection of the mean fluorescence intensity (MFI) of the fluorophore carboxyl-DCF and expressing this value relative to that at time zero. In (B), RAW 264.7 macrophages (5 × 10^5/ml; 1 ml) were incubated for 30 min with compound 1h (20 µM) or DMSO, then LPS (1 µg/ml) was added and incubation continued for 0-60 min, then phosphorylation of ERK1/2, JNK1/2, and p38 was analyzed by Western blotting and expressed relative to actin expression and as a fold increase compared to the control group at 0 time. […]
Background: In western blotting, separated proteins are transferred to a membrane and probed.

The subject of assay [2] is LPS-activated J774A.1 macrophages. The assay is described as follows: IL-6 and TNF-α secretion by ELISA. The settings on record: J774A.1, 10-40 µM, LPS 1 µg/ml 24 h. The method, then:
(§1) The effects of the test samples on IL-1β, TNF-α, and IL-6 production were measured by ELISA according to the manufacturer’s instructions. In brief, 50 µl of biotinylated antibody reagent and 50 µl of supernatant were added to a stripwell plate precoated with anti-mouse IL-1β, TNF-α, or IL-6 antibodies, which was then incubated at room temperature for 2 h. After washing the plate three times with washing buffer, 100 µl of diluted streptavidin-HRP concentrate was added to each well and the plate incubated at room temperature for 30 min. The washing process was repeated, then 100 µl of a premixed tetramethylbenzidine substrate solution was added to each well and the plate incubated at room temperature in the dark for 30 min. After addition of 100 µl of stop solution to each well, the absorbance at 450 nm of each well was measured on a microplate reader.
(§2) Figure 3 Effect of compound 1h on LPS-induced secretion of IL-6 and TNF-α by J774A.1 macrophages, peritoneal macrophages, and JAWSII dendritic cells. (A) J774A.1 macrophages, (B) peritoneal macrophages, or (C) JAWSII dendritic cells (all 4 × 10^5/ml; 1 ml) were incubated for 30 min with 10-40 µM compound 1h or DMSO, then LPS (1 µg/ml) was added and incubation continued for 24 h, then IL-6 levels (left panels) and TNF-α levels (right panels) in the culture medium were measured by ELISA. The data are expressed as the mean ± SD for three separate experiments. *, **, and *** indicate a significant difference at the level of p < 0.05, p < 0.01, or p < 0.001, respectively, compared to the DMSO/LPS group.
(In an ELISA, binding on a coated surface is turned into a signal by an enzyme label.)

The subject of assay [3] is LPS-activated JAWSII dendritic cells. The experiment in a line: IL-6 and TNF-α secretion by ELISA. Particulars: 10-40 µM, LPS 1 µg/ml 24 h. The method, then:
as §1, §2

Assay [4] relates to LPS-activated RAW 264.7 macrophages. The assay is described as follows: IL-6 and TNF-α secretion by ELISA. The method, then: as §1
To investigate the inhibitory effect of compounds 1h, 1i, and 1n on the LPS-induced inflammatory response, NO levels in the supernatants of RAW 264.7 macrophages incubated with DMSO (vehicle) or compound 1h, 1i, or 1n for 30 min before, and during, incubation for 24 h with LPS (1 µg/ml) were measured by the Griess reaction. […] We next investigated their effect on the expression of iNOS, the NO producing enzyme, using Western blots.
Figure 2 Effect of polyenylpyrrole derivatives on the expression of inflammatory mediators in LPS-stimulated RAW 264.7 macrophages. In (A) and (C), the cells (5 × 10^5/ml; 1 ml) were incubated for 30 min with 2.5-40 µM compound 1h, 1i, or 1n or DMSO (vehicle), then LPS (1 µg/ml) was added and incubation continued for 24 h, then NO (A) or IL-6 or TNF-α (C) in the culture medium was assayed by the Griess reaction or ELISA, respectively. In (B), cells (5 × 10^5/ml; 1 ml) were pretreated for 30 min with 2.5-40 µM compound 1h or DMSO, then LPS (1 µg/ml) was added and incubation continued for 24 h, then expression of iNOS and COX-2 was measured by Western blotting. The fold increase is the intensity of the band of interest divided by that of the actin band normalized to the corresponding value for the 0 LPS/0 inhibitor control.

[5] abbreviates: RAW 264.7, 2.5-40 µM, LPS 1 µg/ml 24 h.

As to `O=c1cc(O)cc(/C=C/C=C/C=C/C=C/c2[nH]ccc2Cl)o1` [compound 1h], the “Phosphorylation of ERK1/2, JNK1/2 and p38” value in assay [1] is given as “inhibited phosphorylation of all 3 MAPKs”. In addition, in assay [2], the “LPS-induced IL-6 secretion” value was “reduced secretion of IL-6 and TNF-α”; the “LPS-induced TNF-α secretion” value was “reduced secretion of IL-6 and TNF-α”. In assay [3], the “LPS-induced IL-6 secretion” value is “reduced LPS-induced IL-6 and TNF-α secretion”; the “LPS-induced TNF-α secretion” value was “reduced LPS-induced IL-6 and TNF-α secretion”. Moreover, in assay [4] (setting [5]), the “IL-6 production by LPS-activated cells” value was “significantly decreased IL-6 production by LPS-activated cells in a dose-dependent manner”; the “TNF-α secretion by LPS-activated cells” value was “only slightly and non-significantly reduced”. Besides, the “Background levels of IL-6 and TNF-α in non-stimulated macrophages” value in assay [4] (RAW 264.7, no LPS (data not shown)) was “none of the three compounds altered background levels of IL-6 and TNF-α”.
